Source: US20220160908A1, “CHELATORS AND METHODS OF MAKING AND USING SAME” (The University Of British Columbia, priority 2019, published 2022)
Where two headings read alike, the source gives them in different places. One block for each molecule: values may come before it.

Assays:
[1] = cited from earlier work
[2] = Complex formation equilibria with La(III): stability constants and pM; assay type: physicochemical
[3] = Protonation constants by combined potentiometric-spectrophotometric titrations; assay type: physicochemical; details: 25° C., l = […] (NaCl)
Text: The basicity of different ionizable and non-ionizable protons determine the extent of the competition between the metal ion and the protons to the binding sites of the chelator during metal complexation. Therefore, protonation constants must be considered when evaluating the chelator. […] The remaining four protonation constants were not determined as these sites deprotonated at a pH below the electrode threshold. As a result but without being bound by theory, during metal complexation which preferably occurs at or near physiological pH for pharmaceutical purposes, competition from those protonation processes would be negligible.
FIGS. 4A, 4B and 4C show the absorption bands of the species involved in the protonation equilibria mentioned above at different pH, while Table 2 presents the protonation constants calculated from the experimental data using the HypSpec2014^25 and Hyperquad2013^26 programs. The speciation plots of different species of H4py4pa in FIG. 4D were calculated from the protonation constants in Table 2 with Hyss software.^27
All potentiometric titrations were carried out with a Metrohm Titrando 809 and a Metrohm Dosino 800 with a Ross combined electrode. A 20 mL and 25° C. thermostated glass cell with an inlet-outlet tube for nitrogen gas (purified through a 10% NaOH solution to exclude any CO2 prior to and during the course of the titration) was used as a titration cell. The electrode was calibrated daily in hydrogen ion concentration by direct titration of HCl with freshly prepared NaOH solution and the results were analyzed with Gran procedure^29 in order to obtain the standard potential E° and the ionic product of water pKw at 25° C. and 0.16 M NaCl as a supporting electrolyte. Solutions were titrated with carbonate-free NaOH (0.16 M) that was standardized against freshly recrystallized potassium hydrogen phthalate.
In the study of complex formation equilibria, the determination of the stability constant of [La(H4py4pa)] species was carried out by two different methods. The first method used UV-Vis spectrophotometric measurements on a set of solutions containing 1:1 metal to ligand molar ratio ([H4py4pa]=[M]^3+˜1.33×10^−4 M) and different amounts of HCl in the spectral range 200-400 nm at 25° C. and 1 cm path length. The molar absorptivities of all the protonated species of H4py4pa calculated with HypSpec2014^25 from the protonation constant experiments were included in the calculations. […] The stability constants for the complexes formed by H4edta and La^3+ were taken from literature.^31 Direct pH-potentiometric titrations of the La^3+-H4py4pa system were also carried out. Metal solution was prepared by adding the atomic absorption (AA) standard metal ion solution to a H4py4pa solution of known concentration in the 1:1 metal to ligand molar ratio for La(III). Ligand and metal concentrations were in the range of 0.6-0.8×10^−4 M. The exact amount of acid present in the atomic standard metal solutions standards was determined by Gran's method^29 titrating equimolar solutions of La(III) and Na2H2-EDTA. […] Three replicates of each titration were performed for each system. Relying on the stability constant for the species La(Hpy4pa) obtained by the two different methods, the fitting of the direct potentiometric titrations was possible and yielding the stability constants in Table 3. All the potentiometric measurements were processed using the Hyperquad2013 software^26 while the obtained spectrophotometric data were processed with the HypSpec2014^25 program. Proton dissociation constants corresponding to hydrolysis of La(III) aqueous ion included in the calculations were taken from Baes and Mesmer.^32 The overall equilibrium (formation) constants log β referred to the overall equilibria: pM+qH+rL ⇄MpHqLr (the charges are omitted), where p might also be 0 in the case of protonation equilibria and q can be negative for hydroxide species. […]

[4] = ligand-ligand potentiometric competition with EDTA at l = […] (NaCl) and 25° C.
[5] = potentiometric titrations at l = […] (NaCl) and 25° C.

Compound: O=C(O)CN1CCN(CC(=O)O)CCN(CC(=O)O)CCN(CC(=O)O)CC1 [DOTA, 1,4,7,10-tetraazacyclododecane-1,4,7,10-tetraacetic acid]
log K[La(DOTA)] ([1]; 25° C.): 24.25 | pM (La^3+) ([1]; -log [M]free at [ligand]=10 μM, [M]=1 μM, pH=7.4): 19.2

pM (La^3+) ([2]; -log [M]free at [L] = 10 μM, [M] = 1 μM and pH = 7.4): 21.0 | log K, ML + H^+ ⇌ MHL ([2]; in-batch acidic spectrophotometric competition at 25° C., not evaluated at constant l): 4.01(5) | log K, M(OH)L + H^+ ⇌ ML [2, 4]: 9.94(3) | log K, ML + H^+ ⇌ MHL [2, 4]: 3.78(4) | log K, M^3+ + L ⇌ ML [2, 4]: 20.37(2) | log K, M(OH)L + H^+ ⇌ ML [2, 5]: 9.96(4) | log K, M^3+ + L ⇌ ML [2, 5]: 20.33(3) | log K, H2L^2− + H^+ ⇌ H3L^− (pK9) [3]: 4.06 (2) | log K, H3L^− + H+ ⇌ H4L (pK8) [3]: 3.58 (2) | log K, H4L + H^+ ⇌ H5L^+ (pK7) [3]: 2.71 (3) | log K, H5L^+ + H^+ ⇌ H6L^2+ (pK6) [3]: 2.55 (4) | log K, H6L^2+ + H^+ ⇌ H7L^3+ (pK5) [3]: 2.31 (4) | log K, HL^3− + H^+ ⇌ H2L^2− (pK10) [3]: 6.07 (1) | log K, L^4− + H^+ ⇌ HL^3− (pK11) [3]: 6.96 (1) | log β, H2L^2− + H^+ ⇌ H3L^− [3]: 17.09 (2) | log β, H3L^− + H+ ⇌ H4L [3]: 20.67 (2) | log β, H4L + H^+ ⇌ H5L^+ [3]: 23.38 (3) | log β, H5L^+ + H^+ ⇌ H6L^2+ [3]: 25.93 (4) | log β, H6L^2+ + H^+ ⇌ H7L^3+ [3]: 28.24 (4) | log β, HL^3− + H^+ ⇌ H2L^2− [3]: 13.03 (1) | log β, L^4− + H^+ ⇌ HL^3− [3]: 6.96 (1)
Compound: O=C(O)c1cccc(CN(Cc2cccc(CN(Cc3cccc(C(=O)O)n3)Cc3cccc(C(=O)O)n3)n2)Cc2cccc(C(=O)O)n2)n1 [Compound H4py4pa]

Compound: O=C(O)c1cccc(CN2CCOCCOCCN(Cc3cccc(C(=O)O)n3)CCOCCOCC2)n1 [Compound H2macropa, N,N′-bis[(6-carboxy-2-pyridil)methyl]-4,13-diaza-18-crown-6]
log K[La(macropa)] ([1]; 25° C., l=0.1 M (KCl)): 14.99
